Measured values: ChEMBL document CHEMBL1158302, “Makaluvic acids A and B: novel alkaloids from the marine sponge Zyzzya fuliginosus” (1996)
Values after ≈ are worked out from the molar mass of the structure shown. Active and inactive are the calls of the source. No cut-off for these calls is given here.

System: P388
Test: Cytotoxicity against mouse P388 cells
Type: functional
Conditions: for EC50: read-out: ED50 (the source's name)

Structure (SMILES)	EC50 [µg/mL]	Activity
Cn1cc2c3c1C(=O)C(N)=CC3=NCC2 [MAKALUVAMINE A]	0.4 (≈ 1.99 µM)	
Cn1cc2c3c1C(=O)C(NCCc1ccc(O)cc1)=CC3=NCC2 [MAKALUVAMINE K]	0.7 (≈ 2.18 µM)	
Cn1cc2c3c1C(=O)C(N/C=C/c1ccc(O)cc1)=CC3=NCC2 [MAKALUVAMINE E]	0.6 (≈ 1.88 µM)	
Cn1cnc2c1c(N)nc(=O)n2C		inactive
CN1CCc2c[nH]c(C(=O)O)c2C1=O		inactive
